Assay results taken from patent US11793824B2, “Administration of nicotinamide mononucleotide in the treatment of disease” (Washington University, priority 2013, dated 2023).

How the values were obtained:
neurospheres (NSPCs) = assay: Neurosphere proliferation, marker proteins and cell cycle under FK866; assay type: cell-based, mouse
Experimental: Protein extracts (15-50 μg) from mouse hippocampi or neurospheres were prepared as previously described (Yoshino et al, 2011).
Total RNA was extracted from the hippocampus using an RNeasy kit (Qiagen) and reverse-transcribed into cDNA with a High Capacity cDNA Reverse Transcription kit (Applied Biosystems). Quantitative real-time RT-PCR was conducted with the TaqMan Fast Universal PCR Master mix and appropriate TaqMan primers for each gene with the GeneAmp 7500 fast sequence detection system (Applied Biosystems). Relative expression levels were calculated for each gene by normalizing to Gapdh levels and then to a control.
FK866 (Hasmann & Schemainda, 2003) (Sigma F8557), EX527 (Peck et al, 2010) (Cayman Chemical 10009798), and AGK2 (Outeiro et al, 2007) (Sigma A8231) were dissolved in DMSO and used to inhibit Nampt, Sirt1, and Sirt2 respectively.
Neurosphere cultures and culture media were prepared as described by Dasgupta & Gutmann, 2005 and Lu & Ramanan, 2012 with the following minor modifications. Briefly, postnatal hippocampi were dissected in HibernateA (Invitrogen, A12475-01) and trypsinized at 37° C. for 7 m. Cells were mechanically dissociated by pipetting and pelleted by centrifugation (1700 rpm, 7 min). Dissociation medium (0.1% sodium bicarbonate, 15 mM HEPES, 0.5% glucose in HBSS) was used to wash the cells before they were resuspended in growth medium. Growth medium consisted of DMEM:F12 (1:1, Invitrogen 11966-025 and 21700-075, respectively), B27 (Invitrogen, 17504-044), N2 (Invitrogen, 17502-048), Pen/Strep (Invitrogen), epidermal growth factor (EGF, 20 ng/ml, Sigma, E4127), fibroblast growth factor (FGF, 10 ng/mL, R&D Systems, 233-fb), and heparin (Sigma). Cultures were maintained at 37° C. with 5% CO2, and passaged twice before use in experiments. Three to nine independent samples, each in 1 to 3 replicates, from at least two different litters, were used in all experiments. Neurospheres were cultured in the physiological glucose level of 5 mM (Dienel & Cruz, 2006), which has been previously shown to have no negative consequences on NSPC proliferation, differentiation, or death (Fu et al, 2006; Gao & Gao, 2007).
Neurospheres derived from Nampt^flox/flox mice were dissociated by trypsin digestion and seeded at similar cell densities in 24-well plates with fresh growth medium. Every 24 hours, neurospheres from triplicate wells were collected, dissociated, and counted on a hemocytometer using 0.2% trypan blue exclusion to distinguish viable cells. For analysis of neurosphere diameter, the largest neurosphere in each well was imaged (20× objective) and the diameter was calculated using ImageJ. For secondary neurosphere analysis, the total number of neurospheres in each well was counted at 7 days post-plating.
The inventors investigated how inhibition of Nampt affects neurosphere proliferation. […] To distinguish whether this decrease in cell number was due to an inhibition of proliferation or enhancement of death, the inventors analyzed the protein levels of markers of proliferation, apoptosis, and autophagy. […] Parametric analysis of gene enrichment (PAGE) was conducted based on microarray analyses. See the Methods section. […] Data are presented as mean±s.e.m. *P<0.05. **P<0.01. ***P<0.001.

[1] = Fundus biomicroscopy of aged mice; assay type: in vivo, mouse; conditions: 18 months of age
Experimental: (§1) A 12 month-long NMN administration study using wild-type mice under a regular chow-fed condition was conducted. NMN was administered through drinking water, and two doses of NMN, 100 and 300 mg/kg body weight/day, were tested. […] To assess beneficial and possible adverse effects of NMN, a variety of physiological parameters were periodically monitored, including body weight, body temperature, food and water intake, fed and fasted blood glucose levels, fed and fasted plasma lipid panels, and glucose and insulin tolerance, in NMN-administered and control mice. Blood chemistry, blood cell counts, urine strip test, and other physiological tests including physical activity test were also checked.
(§2) In the long-term NMN administration study (See Methods; Administration of NMN through Drinking Water and Determination of NMN Stability and Toxicity), retinal function was evaluated by fundus biomicroscopy and electroretinography (ERG). FIG. 11 illustrates fundus biomicroscopy images from control and NMN-administered mice. For each group, five mice were examined, and two representative images are shown.

[2] = Electroretinography (ERG) of aged mice; assay type: in vivo, mouse
Experimental: as §1, §2
FIG. 12A-C illustrates electroretinograms from control and NMN-administered mice. Amplitudes of scotopic a and b (FIG. 12A, FIG. 12B) and photopic b (FIG. 12C) waves over each stimulus range are shown. […] The data were analyzed with the two-way repeated ANOVA. […]

NAMPT rod-CKO mice = assay: ERG rescue in NAMPT rod-CKO mice; assay type: in vivo, mouse
Excerpt: The inventors examined the effect of selectively disrupting NAD biosynthesis within PR. The inventors utilized the cre-lox strategy to generate mice that had NAMPT conditionally deleted from either rods (NAMPT rod-CKO) or cones (NAMPT cone-CKO). The NAMPT fl/fl mice as well as the rhodopsin-cre and cone opsin-cre mice have been previously characterized. Both rod and cone cko mice are generated with normal Mendelian frequencies and are born normal with no observable systemic abnormalities (data not shown). All structural and functional analyses performed in CKO mice are analyzed in comparison to littermate controls. Rods constitute a majority of the PR neurons (97% of all photoreceptors). […] Neurosensory retinal degeneration was associated with secondary atrophy and pallor of the optic nerve (FIG. 29C).
The present inventors determined that exogenous supplementation with NMN is able to rescue PR neurons from cell death in CKO mice. Intraperitoneal (i.p.) delivery was chosen to obtain early and sustained levels of NMN. In these experiments, NAMPT rod-CKO mice were given NMN (150 mg/kg) or PBS i.p. daily starting at day P5. […] There was no effect of NMN on littermate control animals.

[3] = FK866 10 nM, 48 hours, immunoblot

| SMILES | cyclins E and A and E2F1 mRNA (qRT-PCR) (neurospheres (NSPCs); FK866 10 nM, 48 hours) | levels of activated caspase 3 (neurospheres (NSPCs); FK866 10 nM, 48 hours) | levels of autophagy marker glycosylated LC3B (neurospheres (NSPCs); FK866 10 nM, 48 hours) | reduction of NSPC number (neurospheres (NSPCs); FK866 10 nM, 48 hours) [%] | decrease of Ki67 protein expression (neurospheres (NSPCs); [3]) [%] | decrease of PCNA protein expression (neurospheres (NSPCs); [3]) [%] | proportion of NSPCs in G0/G1 (FACS) (neurospheres (NSPCs); FK866 treatment) | proportion of NSPCs in S phase (FACS) (neurospheres (NSPCs); FK866 treatment) | mice with dramatic reductions in intraretinal whitish deposits ([1]; 100 mg/kg) | mice with dramatic reductions in intraretinal whitish deposits ([1]; 300 mg/kg) | scotopic a wave amplitudes ([2]; at 0 and 5 db (300 mg/kg), 5 db (100 mg/kg), aged mice) | photopic b wave ([2]; entire range of stimulus, 100 and 300 mg/kg groups) | effect on littermate control animals (NAMPT rod-CKO mice; NMN 150 mg/kg i.p. daily) | photopic and scotopic function (ERG) (NAMPT rod-CKO mice; NMN 150 mg/kg i.p. daily from P5, ERG at 4 weeks, vs PBS) |
| --- | --- | --- | --- | --- | --- | --- | --- | --- | --- | --- | --- | --- | --- | --- |
| O=C(/C=C/c1cccnc1)NCCCCC1CCN(C(=O)c2ccccc2)CC1 [FK866] | the primary cell cycle factors affected | only slightly increased | unchanged | 61 | 87 | 43 | increased the proportion of NSPCs in G0/G1 | decreased the proportion in S phase | – | – | – | – | – | – |
| NC(=O)c1ccc[n+]([C@@H]2O[C@H](COP(=O)([O-])O)[C@@H](O)[C@H]2O)c1 [NMN, nicotinamide mononucleotide] | – | – | – | – | – | – | – | – | two | four | significantly higher amplitudes | trend of improvement | no effect | significant rescue |
